Assay results from ChEMBL document CHEMBL1201862, “PubChem BioAssay data set” (2004).
Calls of active or inactive are those of the source.

Legend:
[1] = target: Dual specificity protein phosphatase 6 (Rattus norvegicus, UniProt Q64346); assay: MKP-3 phosphatase inhibitors, primary screen, biochemical, rat enzyme, in vitro (AID 425)
Cytochrome P450 2C9 = Cytochrome P450 2C9 (Homo sapiens, UniProt P11712)
[2] = target: T1, Dual specificity protein phosphatase 3 (Homo sapiens, UniProt P51452); assay: VHR1 phosphatase inhibitors, biochemical (AID 1878)
T1 sequence (P51452 whole entry): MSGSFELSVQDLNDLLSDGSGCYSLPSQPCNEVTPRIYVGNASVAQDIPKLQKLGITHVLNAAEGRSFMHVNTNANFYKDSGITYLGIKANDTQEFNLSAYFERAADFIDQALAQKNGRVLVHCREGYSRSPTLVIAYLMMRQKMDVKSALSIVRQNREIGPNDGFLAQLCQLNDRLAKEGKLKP

[3] = target: T1, Dual specificity protein phosphatase 3; assay: VHR1 phosphatase inhibitors, primary screen, biochemical, absorbance, uHTS (AID 1654)
[4] = target: T2, Nucleotide-binding oligomerization domain-containing protein 1 (Homo sapiens, UniProt Q9Y239); assay: SAR analysis of NF-kappaB dependent luciferase using DAP as an inducer - Set 2. [Related pubchem assays (depositor defined):AID1566, AID1575, AID1578, AID1579, AID1849, AID1852, AID2264]; format: functional
T2 sequence (Q9Y239 whole entry): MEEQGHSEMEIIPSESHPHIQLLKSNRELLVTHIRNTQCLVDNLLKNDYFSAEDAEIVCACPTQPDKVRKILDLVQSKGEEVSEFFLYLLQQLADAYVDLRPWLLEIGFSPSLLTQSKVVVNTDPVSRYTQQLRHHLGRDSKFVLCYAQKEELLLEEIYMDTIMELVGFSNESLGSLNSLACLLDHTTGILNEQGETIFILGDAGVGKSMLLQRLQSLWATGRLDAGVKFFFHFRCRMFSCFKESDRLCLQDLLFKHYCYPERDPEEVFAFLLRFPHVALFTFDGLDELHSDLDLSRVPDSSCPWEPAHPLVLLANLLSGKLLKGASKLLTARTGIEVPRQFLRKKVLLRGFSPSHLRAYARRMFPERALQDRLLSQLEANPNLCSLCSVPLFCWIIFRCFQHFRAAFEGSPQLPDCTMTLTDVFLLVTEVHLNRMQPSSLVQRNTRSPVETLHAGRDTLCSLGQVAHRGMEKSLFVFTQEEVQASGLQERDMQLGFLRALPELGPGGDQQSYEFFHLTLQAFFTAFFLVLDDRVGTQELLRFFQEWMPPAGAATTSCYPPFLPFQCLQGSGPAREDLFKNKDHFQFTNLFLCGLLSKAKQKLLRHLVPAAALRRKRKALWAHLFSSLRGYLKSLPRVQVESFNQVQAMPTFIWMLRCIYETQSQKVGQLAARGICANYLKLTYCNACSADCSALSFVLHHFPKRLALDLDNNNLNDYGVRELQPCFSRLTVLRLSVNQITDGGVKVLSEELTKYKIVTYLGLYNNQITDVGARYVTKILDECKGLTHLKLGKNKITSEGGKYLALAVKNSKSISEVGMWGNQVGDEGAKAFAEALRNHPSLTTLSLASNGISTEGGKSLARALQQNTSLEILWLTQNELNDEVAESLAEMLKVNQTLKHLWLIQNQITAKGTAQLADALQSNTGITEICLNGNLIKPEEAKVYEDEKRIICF

[5] = target: T2, Nucleotide-binding oligomerization domain-containing protein 1; assay: SAR analysis of compounds that inhibit NOD1 - Set 3. [Related pubchem assays (depositor defined):AID1566, AID1575, AID1578, AID1849, AID1852, AID2333, AID2335, AID2466]; format: functional
[6] = target: T2, Nucleotide-binding oligomerization domain-containing protein 1; assay: SAR analysis of compounds that inhibit NOD1 - Set 2. [Related pubchem assays (depositor defined):AID1566, AID1575, AID1578, AID1849, AID1852, AID2333, AID2335, AID2798]; format: functional
Streptokinase A = target: T3, Streptokinase A (Streptococcus pyogenes serotype M1, UniProt P10520); assay: S. pyogenes streptokinase expression inhibitors, potency, dose response, plasminogen activation absorbance, OD405 (AID 1914); format: functional, Streptococcus pyogenes M1 GAS;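 also: secreted streptokinase activity via plasminogen activation per viability signal from cell pellet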
T3 sequence (P10520 whole entry): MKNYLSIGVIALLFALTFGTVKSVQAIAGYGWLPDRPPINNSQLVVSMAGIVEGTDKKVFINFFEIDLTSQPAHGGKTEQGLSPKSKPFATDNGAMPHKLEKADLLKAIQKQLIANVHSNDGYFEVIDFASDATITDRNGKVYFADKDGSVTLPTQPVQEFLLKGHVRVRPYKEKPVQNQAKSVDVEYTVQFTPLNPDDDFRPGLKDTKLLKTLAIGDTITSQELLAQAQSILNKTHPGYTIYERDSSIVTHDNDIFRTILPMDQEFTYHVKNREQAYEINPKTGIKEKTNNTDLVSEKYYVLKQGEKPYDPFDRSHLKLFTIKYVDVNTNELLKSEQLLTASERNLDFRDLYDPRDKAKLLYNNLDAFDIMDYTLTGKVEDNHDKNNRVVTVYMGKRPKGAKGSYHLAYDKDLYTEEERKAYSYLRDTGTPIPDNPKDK

[7] = target: T4, Nucleotide-binding oligomerization domain-containing protein 2 (Homo sapiens, UniProt Q9HC29); assay: NOD2 signaling inhibitors, analog potency, SAR follow-up, cell-based, set 3 (AID 2799); format: functional
T4 sequence (Q9HC29 whole entry, the tested form may be a part): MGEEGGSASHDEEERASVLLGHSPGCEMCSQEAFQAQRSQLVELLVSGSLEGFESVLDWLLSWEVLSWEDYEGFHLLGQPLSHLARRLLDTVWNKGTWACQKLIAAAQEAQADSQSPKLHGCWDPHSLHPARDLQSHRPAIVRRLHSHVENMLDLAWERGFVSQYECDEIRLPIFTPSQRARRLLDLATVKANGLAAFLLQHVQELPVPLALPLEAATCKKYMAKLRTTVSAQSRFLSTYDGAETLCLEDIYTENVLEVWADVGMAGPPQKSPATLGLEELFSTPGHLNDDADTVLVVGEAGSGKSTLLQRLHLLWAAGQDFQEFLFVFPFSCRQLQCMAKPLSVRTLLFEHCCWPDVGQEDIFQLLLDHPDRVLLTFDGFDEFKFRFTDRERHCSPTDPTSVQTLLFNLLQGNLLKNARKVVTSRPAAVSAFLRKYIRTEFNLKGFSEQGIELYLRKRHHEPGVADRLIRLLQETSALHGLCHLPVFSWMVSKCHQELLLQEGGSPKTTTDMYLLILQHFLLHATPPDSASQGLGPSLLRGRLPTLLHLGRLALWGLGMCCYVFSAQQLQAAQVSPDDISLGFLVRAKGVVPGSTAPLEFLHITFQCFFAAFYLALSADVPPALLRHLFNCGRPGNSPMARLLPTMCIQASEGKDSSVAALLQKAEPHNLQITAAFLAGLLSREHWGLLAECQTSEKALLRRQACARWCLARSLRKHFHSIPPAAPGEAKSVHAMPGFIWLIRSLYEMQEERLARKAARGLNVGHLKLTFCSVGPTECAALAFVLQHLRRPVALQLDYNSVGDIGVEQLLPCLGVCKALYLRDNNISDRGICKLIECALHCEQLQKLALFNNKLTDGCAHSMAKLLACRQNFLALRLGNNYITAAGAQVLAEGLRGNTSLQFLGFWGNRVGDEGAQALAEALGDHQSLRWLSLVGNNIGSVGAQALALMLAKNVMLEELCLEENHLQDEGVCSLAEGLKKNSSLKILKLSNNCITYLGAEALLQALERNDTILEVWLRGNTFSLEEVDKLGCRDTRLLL

HEK293 [8] = assay: SAR analysis of compounds that are cytotoxic to HEK293 - Set 3. [Related pubchem assays (depositor defined):AID1575, AID1578, AID1848, AID1849, AID2001, AID2333, AID2334, AID2335, AID2337, AID2469]; format: functional, cell-based; settings: Homo sapiens
Streptococcus = assay: Group A Streptococcus viability loss, dose response, counter-screen for streptokinase expression inhibitor project, luminescence, BacTiterGlo (AID 1915); format: functional, organism-based;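 also: potency for reduction of bacterial viability or growth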
Interleukin-8 [9] = target: T5, Interleukin-8 (Homo sapiens, UniProt P10145); assay: SAR analysis of Tumor necrosis factor alpha (TNF-alpha) induced IL-8 secretion in MCF-7/NOD1 cells - Set 2. [Related pubchem assays (depositor defined):AID1575, AID2250, AID2260]; format: functional, cell-based
T5 sequence (P10145 whole entry): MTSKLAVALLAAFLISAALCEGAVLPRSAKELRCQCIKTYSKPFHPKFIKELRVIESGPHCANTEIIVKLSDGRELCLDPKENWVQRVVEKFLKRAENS

HEK293 [10] = assay: SAR analysis of compounds that are cytotoxic to HEK293 - Set 2. [Related pubchem assays (depositor defined):AID1575, AID1578, AID1849, AID2001, AID2333, AID2334, AID2335, AID2337, AID2800]; format: functional, cell-based; settings: Homo sapiens
Tumor necrosis factor = Tumor necrosis factor (Homo sapiens, UniProt P01375); assay: TNFa-triggered NF-kB activation inhibitors, SAR follow-up, cell-based, set 3 (AID 2801); format: functional
Sequence of Tumor necrosis factor (P01375 whole entry, the tested form may be a part): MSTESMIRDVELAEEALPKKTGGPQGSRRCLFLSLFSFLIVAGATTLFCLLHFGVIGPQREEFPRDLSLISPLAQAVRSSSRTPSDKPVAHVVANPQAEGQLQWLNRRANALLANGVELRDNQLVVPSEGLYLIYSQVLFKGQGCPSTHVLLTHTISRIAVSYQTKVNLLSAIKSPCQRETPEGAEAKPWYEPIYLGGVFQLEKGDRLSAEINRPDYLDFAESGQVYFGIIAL

[11] = target: T4, Nucleotide-binding oligomerization domain-containing protein 2; assay: NOD2 inhibitors, SAR follow-up, set 2 (AID 2475); format: functional
Interleukin-8 [12] = target: T5, Interleukin-8; assay: SAR analysis of GM-Tri-DAP induced IL-8 secretion in MCF-7/NOD1 cells - Set 2. [Related pubchem assays (depositor defined):AID1575, AID1578, AID2333]; format: functional, cell-based
[13] = tested on: Streptococcus sp. 'group A'; assay: growth inhibition of control SK(-) GAS strain, dose response, counter-screen for streptokinase expression inhibitor project, luminescence, kanamycin, BacTiterGlo, confirmation (AID 1900); format: functional, organism-based

Sequence of Dual specificity protein phosphatase 6 (Q64346 whole entry): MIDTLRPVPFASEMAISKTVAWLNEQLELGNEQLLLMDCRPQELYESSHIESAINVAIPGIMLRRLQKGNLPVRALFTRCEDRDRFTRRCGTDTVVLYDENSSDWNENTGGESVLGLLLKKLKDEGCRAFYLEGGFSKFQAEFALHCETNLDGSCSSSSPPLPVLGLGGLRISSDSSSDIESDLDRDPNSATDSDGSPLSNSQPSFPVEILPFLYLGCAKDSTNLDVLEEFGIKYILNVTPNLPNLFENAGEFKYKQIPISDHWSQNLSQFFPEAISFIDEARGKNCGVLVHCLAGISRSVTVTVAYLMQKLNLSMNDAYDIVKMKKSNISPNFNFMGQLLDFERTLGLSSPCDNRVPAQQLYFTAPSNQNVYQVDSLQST
Sequence of Cytochrome P450 2C9 (P11712 whole entry): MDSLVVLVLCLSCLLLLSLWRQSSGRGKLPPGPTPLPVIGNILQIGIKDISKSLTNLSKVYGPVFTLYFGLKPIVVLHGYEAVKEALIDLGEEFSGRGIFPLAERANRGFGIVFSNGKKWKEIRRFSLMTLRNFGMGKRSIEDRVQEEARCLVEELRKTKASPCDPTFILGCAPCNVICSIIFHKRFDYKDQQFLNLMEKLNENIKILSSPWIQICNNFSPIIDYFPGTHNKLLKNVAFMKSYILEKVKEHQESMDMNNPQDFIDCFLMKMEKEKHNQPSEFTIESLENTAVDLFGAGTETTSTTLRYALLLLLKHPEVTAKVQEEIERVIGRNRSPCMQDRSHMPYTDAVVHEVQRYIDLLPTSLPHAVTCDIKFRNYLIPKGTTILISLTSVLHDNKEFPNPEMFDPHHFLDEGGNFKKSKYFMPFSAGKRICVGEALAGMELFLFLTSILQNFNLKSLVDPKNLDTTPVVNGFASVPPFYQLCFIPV

For `CCC(=S)/C=C1\Sc2ccccc2N1CCCS(=O)(=O)O`, the IC50 [1] was > 158 µM (not active), the AC50 (Cytochrome P450 2C9) was 22.4 µM (inconclusive) and the IC50 [2] was 8.29 µM (active). For the same molecule, the IC50 [3] was 4.33 µM (active).
For `CCCCn1c(SCC(=O)c2ccccc2)nc2c1c(=O)[nH]c(=O)n2C`, the IC50 [4] was > 25 µM (inactive), the IC50 [5] was > 20 µM (inactive) and the IC50 [6] was > 20 µM (inactive). The EC50 (Streptokinase A) was > 150 µM (not active), the IC50 [7] was > 20 µM (inactive) and the IC50 (HEK293 [8]) was > 20 µM (inactive). For the same molecule, the EC50 (Streptococcus) was 18.4 µM (active), the IC50 (Interleukin-8 [9]) was > 25 µM (inactive) and the IC50 (HEK293 [10]) was > 20 µM (inactive). For the same molecule, the IC50 (Tumor necrosis factor) was > 20 µM (inactive), the IC50 [11] was > 20 µM (inactive) and the IC50 (Interleukin-8 [12]) was > 25 µM (inactive). The EC50 [13] was 3.37 µM (active).
